Structure (SMILES)	logP
O=C(O)CCCO/N=C(/c1ccccc1)c1cncnc1	-0.38
O=C(O)CCCCO/N=C(\c1ccccc1)c1ccncn1	-0.19
O=C(O)CCCCCO/N=C(\c1cccc(C(F)(F)F)c1)c1ccncn1	2.49
O=C(O)CCCO/N=C(\c1ccccc1)c1ncccn1	0.36
O=C(O)CCCCO/N=C(\c1cccc(C(F)(F)F)c1)c1ncccn1	1.53
O=C(O)CCCCO/N=C(\c1cncnc1)c1cccc(C(F)(F)F)c1	0.63
O=C(O)CCCCCO/N=C(\c1cccc(C(F)(F)F)c1)c1cccnn1	2.19
O=C(O)CCCCCO/N=C(/c1ccnnc1)c1cccc(C(F)(F)F)c1	2.27
O=C(O)CCCCO/N=C(\c1cccc(C(F)(F)F)c1)c1cnccn1	1.08
O=C(O)CCCCO/N=C(\c1ccccc1)c1ncccn1	0.5
O=C(O)CCCO/N=C(\c1ccccc1)c1ccncn1	-0.47
O=C(O)CCCCO/N=C(\c1ccccc1)c1cncnc1	-0.21
O=C(O)CCCCCO/N=C(/c1cccc(C(F)(F)F)c1)c1ncccn1	1.94
O=C(O)CCCCON=C(c1cccc(C(F)(F)F)c1)c1ccncn1	1.74
O=C(O)CCCCCO/N=C(\c1cncnc1)c1cccc(C(F)(F)F)c1	1.07
O=C(O)CCCCCO/N=C(/c1ccccc1)c1ccncn1	0.08
O=C(O)CCCCCO/N=C(\c1cccc(C(F)(F)F)c1)c1cnccn1	2.56
O=C(O)CCCCCON=C(c1ccccc1)c1ncccn1	1.07
O=C(O)CCCCO/N=C(/c1ccnnc1)c1cccc(C(F)(F)F)c1	1.81

From the SangsterLogP compilation
